Data published in article PMC3510080, “Identification of Compounds with Anti-Proliferative Activity against Trypanosoma brucei brucei Strain 427 by a Whole Cell Viability Based HTS Campaign” (PLoS Neglected Tropical Diseases, 2012).
Like-named read-outs stand apart in the source and are kept apart here.

Key:
mammalian cell lines = details: cited from earlier work
[1] = system: T.b. brucei bloodstream form lister 427; assay: T.b. brucei Alamar Blue viability estimation assay (384-well HTS, retest and rescreen); format: cell-based, Trypanosoma brucei brucei; details: for IC50: Trypanosoma brucei
Procedure: (§1) T.b. brucei lister 427 cells were maintained in log phase growth in 25 cm^2 tissue culture flasks (Corning, NY, USA) by sub-culturing at either 24 or 48 hour intervals. Cells were grown in HMI-9 medium, supplemented with 10% fetal calf serum (FCS) and 100 IU/ml penicillin/streptomycin (Invitrogen, Carlsbad, California, USA) with incubation at 5% CO2 at 37°C in humidified conditions. HEK293 cells were maintained in high glucose DMEM with L-glutamine, supplemented with 1× non-essential amino acids (NEAA; Invitrogen, USA) and 1 mM sodium pyruvate. Growth conditions were in 5% CO2 at 37°C, under humidified conditions.
All reagent and cell additions were made with a Multidrop liquid handler (Thermo Scientific, Newington, NH, USA) under sterile conditions. Fifty-five microliters of 2000 cells/mL of T.b. brucei in HMI-9 medium were added to a black, clear-bottomed 384-well lidded plate (BD Biosciences, Franklin Lanes, NJ, USA). Cells were incubated for 24 hours at 37°C in an atmosphere of 5% CO2 before addition of 5 µl of compounds/DMSO for control wells. Compounds suspended in 100% DMSO or 100% DMSO as controls were pre-diluted 1∶21 in high glucose DMEM without FCS by using a Minitrack robotic liquid handler (PerkinElmer, Waltham, MA, USA). Five microliters of diluted sample was added to the plate to give a final DMSO concentration of 0.417% in the assay. Cells were incubated for an additional 48 hours at 37°C. Ten microliters of 70% Alamar Blue (Biosource, Bethesda, MD, USA) was added to each well (diluted in HMI-9 medium supplemented with 10% FCS) to a final concentration of 10% in the assay. The plate was incubated for two hours under the same conditions, then incubated for 22 hours in the dark at room temperature. Wells were read at 535 nm (excitation) and 590 nm (emission) wavelengths on a Victor II Wallac plate reader (PerkinElmer, USA). Specific dilutions are explained further in the primary and retest assay methodology. Reference drugs used in the assay were pentamidine (Sigma-Aldrich, St Louis, MO, USA), diminazene aceturate (Sigma-Aldrich, USA) and puromycin (Calbiochem, San Deigo, CA, USA). Pentamidine is used to treat patients with HAT and diminazene is a veterinary drug used against T.b. brucei to combat infections in cattle.
Primary screening of the library, consisting of 87,296 compounds in two hundred and forty eight 384-well plates, was undertaken in single point against T.b. brucei. Stock solutions consisted of test compound at a concentration of 5 mM in 100% DMSO. One µl of each compound stock solution was diluted by the addition of 40 µl of dilution medium (high glucose DMEM without FCS) by a multidrop liquid handler (Thermo Scientific, USA). A 5 µl sample of this diluted solution was then added to the trypanosome assay plate. The final concentration of test compound in the assay was […] and that of DMSO was 0.42% v/v. Compounds were screened over a total of 11 days, at an average of 80 plates per day, taking into consideration that the assay incubation was 3 days total. Test compounds were added to plates in batches of 20 at two hour intervals, to maintain the timing of additions and reads.
Compound activity was calculated as the percentage inhibition in relation to positive and negative controls. […] These in-plate negative controls were used in an effort to normalise compound activity in relation to any plate to plate variation in the assay signal. A whole 384-well control plate was included in each day's screening, one per 20 compound plates containing half a plate of 2 µM pentamidine for the positive assay control, and half a plate of 0.42% v/v DMSO as a negative control. The positive assay control was used to calculate compound activity for batches of 20 compound plates. As well providing the positive control data, these whole plate controls were used for the calculation of the Z' to measure the reproducibility of the assay.

HEK293 cells = assay: HEK293 Alamar Blue viability estimation assay; format: cell-based, human; details: pentamidine 1 µM, diminazene 40 µM
Procedure: as §1
Cells at 80% confluence were harvested and diluted in growth medium (high glucose DMEM supplemented with 10% FCS) to 7.27×10^4 cells/ml. Under sterile conditions, 55 µl of diluted cells per well were added to a black, clear bottomed 384-well lidded plate (BD Biosciences, Bedford, MA, USA) with a Multidrop liquid handler (Thermo Scientific, Barrington, IL, USA). Incubation times, compound additions and plate read were as per the trypanosome viability assay, with the exception that Alamar Blue was diluted in HEK293 growth media before addition, and incubation of Alamar Blue at 37°C, in 5% CO2, was for 4 hours, followed by incubation at room temperature for 20 hours. The activity of compounds against HEK293 cells was used to calculate the SI of mammalian to T.b. brucei cells. The control compound for HEK293 cells was puromycin (Calbiochem, USA).
Compounds identified from primary screening were retested against both T.b. brucei and HEK293 cells in duplicate and at varying concentrations to obtain a dose-response curve. Thus, a 5 µl sample of fresh compound stock solution (5 mM in DMSO) was cherry picked into 384-well plates and diluted 1∶10 in dilution medium (high glucose DMEM without FCS). Serial dilutions of these samples were then prepared in the same media by a Minitrak robotic liquid handler (Perkin Elmer, USA). […] A screening dose of 10.4 µM was included in the dilution series to enable reconfirmation of primary screening T.b. brucei activity.
The DMSO working concentration in the serial dilutions was maintained at 5%, giving a final assay concentration of 0.42% DMSO, except for the 41.7 µM test compound solution, where as previously stated the corresponding DMSO concentration was 0.83% v/v. […] Therefore the 41.7 µM test compound sample with 0.83% v/v DMSO was not used in the T.b. brucei assay and thus the top test compound concentration in this assay was 20.8 µM.
Compound activity in the retest campaign was calculated as percentage inhibition in relation to positive and negative controls, in the same manner as the primary screening campaign. The positive controls, pentamidine (2 µM final concentration) for T.b. brucei and puromycin (8 µM final concentration) for HEK293, were both screened in whole 384-well control plates. Whole 384-well plate controls were included after every batch of 20 compound plates, and were comprised of half a plate of negative control and half a plate of positive control. The negative control was the vehicle, […]. The negative control was also included in column 24 of each compound assay plate to determine signal variation from plate to plate and to calculate compound activity. The exception was the 41.7 µM compound dose used in the HEK293 assay. In these plates column 24 contained 0.83% DMSO as a negative control. A separate 384-well plate containing a 13 point dose-response of the reference compounds puromycin, pentamidine and diminazene, in triplicate, was also included per 20 compound test plate batch to estimate assay sensitivity.
These compounds were retested as in dose for N of three replicates, as described above for both T.b. brucei and HEK293.

Structure (SMILES): N=C(N)c1ccc(/N=N/Nc2ccc(C(=N)N)cc2)cc1 [Diminazene, diminazene aceturate, reference compound]
- reported SI (mammalian cell lines): 692
- Selectivity Index T.B ([1]; HEK293 IC50 / T.b. brucei IC50, > if less than 50% activity at 75.8 µM in HEK293): >330
- IC50 ([1]; 13 control plates, triplicate dose-response, read-out: IC50 of reference compounds, primary screening campaign): 65.4 nM
- IC50 ([1]; during rescreening of resynthesized compounds, read-out: Reference Compound Activity T.B (IC50)): 121 ± 9.04 nM
- IC50 ([1]; reference compounds, read-out: IC50 against T.b. brucei, retest screening campaign): 29.5 ± 5.8 nM
- activity in the HEK293 assay at the doses screened, rescreening (HEK293 cells): neither pentamidine nor diminazene displayed activity
- activity in the HEK293 assay at the doses screened, retest campaign (HEK293 cells): Neither pentamidine nor diminazene displayed activity
